This note sets out measurements from PubChem BioAssay AID624445 (Broad Institute, 2012).

Records with an inconclusive call do not appear. The source made the active and inactive calls.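 Rule for the calls: active = fitted curve drops past -35% activity change at a concentration under twice the top valid tested dose; inconclusive = no clear call, values can overlap the other calls; inactive = the rest, including effects in the wrong direction.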

In the first assay the test system is 26S proteasome chymotrypsin-like activity (human). Put plainly: proteasome chymotrypsin-like activity inhibition in cells, dose response, mechanism study for HSF1 activator project, cell-based, U2OS, Proteasome-Glo luminescence, dry powder, set 2 (AID 624445).
Details: not given
In the case of `O=C(Nc1nc(SCc2ccccc2)ns1)C1CCC1`, the AC35 was 30.4 µM.
For `Nc1nc(SCc2ccccc2)ns1`, the AC35 is 37.2 µM.
`Cc1cccc(CSc2nsc(N)n2)c1`: the AC35 is 35.2 µM.

The assay is the same for the next values; noted with them: at 38 µM (top of the series).
Consider `Nc1nc(SCc2ccc(Cl)cc2Cl)ns1`, for which the activity change, negative = inhibition is 2.27% (inactive).
The same measure, in the same setting: the result for `O=C(Nc1nc(SCc2ccccc2)ns1)C1CC=CCC1` (stereo unspecified) reads -30.5% (inactive); that for `Cc1ccccc1CSc1nsc(N)n1`, -21.8% (inactive); that for `Nc1nc(SCc2ccc(F)cc2)ns1`, -32.9% (inactive).
Same read-out and setting: as for `Cc1ccccc1CSc1nnc(N)s1`, the figure is -25.3% (inactive).
Same read-out and setting: as for `Cc1ccccc1CSc1n[nH]c(N)n1`, the figure is 9.01% (inactive).
Take `Nc1nc(SCc2ccccc2Cl)ns1`: the activity change, negative = inhibition was -20.5% (inactive).
Same read-out and setting: as for `Nc1nc(S(=O)(=O)Cc2ccccc2)ns1`, the figure is -17.1% (inactive).
